# In publication PMC8206213, “An L-2-hydroxyglutarate biosensor based on specific transcriptional regulator LhgR” (Nature Communications, 2021):
# Several values for one entry are separate records, joined by “and”; a condition that tells them apart may be missing. Identical values can stand only once.
# Test: Dose-response of purified LHGFR and its variants for L-2-HG in 50 mM Tris-HCl buffer (pH 7.4), Venus/mTFP emission ratio
# Assay type: binding
# Experimental: Purified L-2-HG biosensors and different compounds were diluted by 50 mM Tris-HCl buffer (pH 7.4), mixed together in a black 96-well plate at a volume ratio of 3:1, and the fluorescence intensities were measured using an EnSight microplate reader (PerkinElmer, USA) with excitation at 430 nm, emission at 485 nm (mTFP) and 528 nm (Venus). The dose-response curves were fitted by OriginPro 2016 software (OriginLab) according to the following formula:1 R=Rmax+Rmin−Rmax/1+([L-2-HG]/Kd)^p where R, Rmin, and Rmax refer to the emission ratio of Venus to mTFP, ratio in the absence of L-2-HG, and ratio at saturation with L-2-HG, respectively. The [L-2-HG], Kd, and p refer to the L-2-HG concentration, apparent dissociation constant, and Hill slope, respectively. Emission spectra were recorded at 430 nm excitation, in steps of 2 nm. Excitation spectra were recorded using emission at 550 nm, excitation from 380 to 535 nm in steps of 2 nm.
structure (smiles),measurement,setting,value
"O=C(O)CC[C@H](O)C(=O)O [L-2-HG, L-2-Hydroxyglutarate]",Emission ratio of 528/485,"For L-2-HG, 2-HG concentration 0.01, Suppl. Fig. 9c",1.3857 and 1.387 and 1.404
same,Emission ratio of 528/485,"For L-2-HG, 2-HG concentration 0.01, Suppl. Fig. 9d",1.655 and 1.676 and 1.693
same,Emission ratio of 528/485,"For L-2-HG, 2-HG concentration 0.1, Suppl. Fig. 9c",1.381 and 1.392 and 1.391
same,Emission ratio of 528/485,"For L-2-HG, 2-HG concentration 0.1, Suppl. Fig. 9d",1.641 and 1.674 and 1.689
same,Emission ratio of 528/485,"For L-2-HG, 2-HG concentration 0.2, Suppl. Fig. 9c",1.397 and 1.394 and 1.401
same,Emission ratio of 528/485,"For L-2-HG, 2-HG concentration 0.2, Suppl. Fig. 9d",1.675 and 1.688 and 1.698
same,Emission ratio of 528/485,"For L-2-HG, 2-HG concentration 1, Suppl. Fig. 9c",1.392 and 1.412 and 1.423
same,Emission ratio of 528/485,"For L-2-HG, 2-HG concentration 1, Suppl. Fig. 9d",1.753 and 1.778 and 1.797
same,Emission ratio of 528/485,"For L-2-HG, 2-HG concentration 2, Suppl. Fig. 9c",1.425 and 1.451 and 1.463
same,Emission ratio of 528/485,"For L-2-HG, 2-HG concentration 2, Suppl. Fig. 9d",1.892 and 1.897 and 1.889
same,Emission ratio of 528/485,"For L-2-HG, 2-HG concentration 10, Suppl. Fig. 9c",1.602 and 1.628 and 1.623
same,Emission ratio of 528/485,"For L-2-HG, 2-HG concentration 10, Suppl. Fig. 9d",2.254 and 2.242 and 2.288
same,Emission ratio of 528/485,"For L-2-HG, 2-HG concentration 20, Suppl. Fig. 9c",1.712 and 1.7343 and 1.752
same,Emission ratio of 528/485,"For L-2-HG, 2-HG concentration 20, Suppl. Fig. 9d",2.359 and 2.347 and 2.363
same,Emission ratio of 528/485,"For L-2-HG, 2-HG concentration 100, Suppl. Fig. 9c",1.988 and 1.973 and 1.992
same,Emission ratio of 528/485,"For L-2-HG, 2-HG concentration 100, Suppl. Fig. 9d",2.568 and 2.652 and 2.688
same,Emission ratio of 528/485,"For L-2-HG, 2-HG concentration 200, Suppl. Fig. 9c",2.0666 and 2.05 and 2.077
same,Emission ratio of 528/485,"For L-2-HG, 2-HG concentration 200, Suppl. Fig. 9d",2.563 and 2.676 and 2.688
same,Emission ratio of 528/485,"For L-2-HG, 2-HG concentration 1000, Suppl. Fig. 9c",2.162 and 2.183 and 2.153
same,Emission ratio of 528/485,"For L-2-HG, 2-HG concentration 1000, Suppl. Fig. 9d",2.635 and 2.6341 and 2.632
same,Emission ratio of 528/485,"For L-2-HG, 2-HG concentration 2000, Suppl. Fig. 9c",2.173 and 2.178 and 2.17
same,Emission ratio of 528/485,"For L-2-HG, 2-HG concentration 2000, Suppl. Fig. 9d",2.667 and 2.655 and 2.697
same,Emission ratio of 528/485,"Supplementary Fig. 6a, L-2-HG concentration 0.01",1.3857 and 1.387 and 1.404
same,Emission ratio of 528/485,"Supplementary Fig. 6a, L-2-HG concentration 0.1",1.381 and 1.392 and 1.391
same,Emission ratio of 528/485,"Supplementary Fig. 6a, L-2-HG concentration 0.2",1.397 and 1.394 and 1.401
same,Emission ratio of 528/485,"Supplementary Fig. 6a, L-2-HG concentration 1",1.392 and 1.412 and 1.423
same,Emission ratio of 528/485,"Supplementary Fig. 6a, L-2-HG concentration 2",1.425 and 1.451 and 1.463
same,Emission ratio of 528/485,"Supplementary Fig. 6a, L-2-HG concentration 10",1.602 and 1.628 and 1.623
same,Emission ratio of 528/485,"Supplementary Fig. 6a, L-2-HG concentration 20",1.712 and 1.7343 and 1.752
same,Emission ratio of 528/485,"Supplementary Fig. 6a, L-2-HG concentration 100",1.988 and 1.973 and 1.992
same,Emission ratio of 528/485,"Supplementary Fig. 6a, L-2-HG concentration 200",2.0666 and 2.05 and 2.077
same,Emission ratio of 528/485,"Supplementary Fig. 6a, L-2-HG concentration 1000",2.162 and 2.183 and 2.153
same,Emission ratio of 528/485,"Supplementary Fig. 6a, L-2-HG concentration 2000",2.173 and 2.178 and 2.17
same,Emission ratio of 528/485,"Supplementary Fig. 6b, L-2-HG concentration 0.01",1.79 and 1.921 and 1.894
same,Emission ratio of 528/485,"Supplementary Fig. 6b, L-2-HG concentration 0.1",1.777 and 1.91 and 1.94
same,Emission ratio of 528/485,"Supplementary Fig. 6b, L-2-HG concentration 1",2.057 and 2.207 and 2.255
same,Emission ratio of 528/485,"Supplementary Fig. 6b, L-2-HG concentration 2",2.268 and 2.379 and 2.449
same,Emission ratio of 528/485,"Supplementary Fig. 6b, L-2-HG concentration 10",2.5843 and 2.787 and 2.825
same,Emission ratio of 528/485,"Supplementary Fig. 6b, L-2-HG concentration 20",2.72 and 2.88 and 2.892
same,Emission ratio of 528/485,"Supplementary Fig. 6b, L-2-HG concentration 100",2.76 and 2.892 and 2.986
same,Emission ratio of 528/485,"Supplementary Fig. 6b, L-2-HG concentration 1000",2.847 and 2.935 and 2.998
same,Emission ratio of 528/485,"Supplementary Fig. 6b, L-2-HG concentration 2000",2.912 and 2.995 and 3.032
same,Emission ratio of 528/485,"Supplementary Fig. 6c, L-2-HG concentration 0.01",1.881 and 1.865 and 1.887
same,Emission ratio of 528/485,"Supplementary Fig. 6c, L-2-HG concentration 0.1",1.869 and 1.918 and 1.908
same,Emission ratio of 528/485,"Supplementary Fig. 6c, L-2-HG concentration 1",2.144 and 2.182 and 2.149
same,Emission ratio of 528/485,"Supplementary Fig. 6c, L-2-HG concentration 2",2.3419 and 2.384 and 2.402
same,Emission ratio of 528/485,"Supplementary Fig. 6c, L-2-HG concentration 10",2.743 and 2.7667 and 2.84
same,Emission ratio of 528/485,"Supplementary Fig. 6c, L-2-HG concentration 20",2.846 and 2.91 and 2.871
same,Emission ratio of 528/485,"Supplementary Fig. 6c, L-2-HG concentration 100",2.914 and 2.957 and 2.953
same,Emission ratio of 528/485,"Supplementary Fig. 6c, L-2-HG concentration 1000",2.894 and 2.9819 and 2.963
